Results published in publication PMC6121455, “Synthesis and Spectrum of Biological Activities of Novel N-arylcinnamamides” (International Journal of Molecular Sciences, 2018).
In brackets after ≈: the same amount, converted by molar mass. Several values for one entry are separate records, joined by “and”; a condition that tells them apart may be missing. Equal entries are not always repeated. Entries after “also recorded” stand apart in the source; their conditions may differ. Where two headings read alike, the source gives them in different places.

Columns and labels:
M. tuberculosis H37Ra = details: cited from earlier work
[1] = system: Fusarium avenaceum (Fr.) Sacc. IMI 319947; assay: In vitro antifungal activity, mycelial growth (MIC); type: cell-based; details: F. avenaceum mycelial growth
[2] = system: Bipolaris sorokiniana conidium germination; assay: Inhibition of Bipolaris sorokiniana conidium germination; type: cell-based; details: 48 h, read-out: Inhibition (%) Compared to Negative Control, conidium germination
[3] = system: Bipolaris sorokiniana (Sacc.) Shoemaker H-299; assay: In vitro antifungal activity, mycelial growth (MIC); type: cell-based; details: B. sorokiniana mycelial growth; for MIC: Bipolaris sorokiniana
[4] = Lipophilicity determination by RP-HPLC (capacity factor k / log k); details: C18, isocratic MeOH 72%/H2O 28%
MRSA 63718 [5] = assay: In vitro antibacterial evaluation, broth dilution micro-method (MIC); type: cell-based, Staphylococcus aureus; details: 24 h, read-out: MIC MRSA 63718
S. aureus ATCC 29213 = assay: Dynamics of antibacterial effect (time-kill curves); type: cell-based, Staphylococcus aureus; details: 4× MIC, after 8 h; bactericidal = −3log decrease of CFU/mL
[6] = system: Nicotiana tabacum var. Samsun; assay: In vivo toxicity against plant cells (leaf injection); details: water solutions 1× MIC and 4× MIC injected into leaves, checked visually for 5 weeks
Experimental: Nicotiana tabacum var. Samsun was used for this test [88].
Nicotiana tabacum var. Samsun was used for this test. […] As the negative control, solutions of DMSO in the same concentration were used. The positive control was 5% DMSO, which should be toxic to the plant cells. The aqueous solutions were injected into the plant leaves by a syringe (needle 27G × ¾”) to fill area approx. 1 cm^2 [88]. The test was made in triplicates in three different plants. The plants were kept in a greenhouse on direct sunlight. The effect of the compounds was visually checked every day for 5 weeks.

[7] = system: Staphylococcus aureus ATCC 29213; assay: In vitro antibacterial evaluation, broth dilution micro-method (MIC); type: cell-based; details: read-out: MIC SA
MRSA SA 3202 [8] = assay: as above; type: cell-based, Staphylococcus aureus; details: 24 h, read-out: MIC MRSA SA 3202
Staphylococcus aureus = assay: Pre-test subcultivation of aliquots on agar (minimal bactericidal concentration); type: cell-based
MRSA SA 3202 [9] = assay: Synergy effect with clinically used drugs (fractional inhibitory concentration); type: cell-based, Staphylococcus aureus; details: for Separate MIC: MRSA SA 3202, each drug alone in the checkerboard plate; for Combined effect with vancomycin: additivity 0.5 < ΣFIC < 1
MRSA SA 630 [10] = assay: In vitro antibacterial evaluation, broth dilution micro-method (MIC); type: cell-based, Staphylococcus aureus; details: 24 h, read-out: MIC MRSA SA 630
[11] = system: photosynthetic electron transport (PET) in spinach chloroplasts; assay: Inhibition of photosynthetic electron transport (PET) in spinach chloroplasts (Hill reaction, DCPIP); type: biochemical, Spinacia oleracea L.
Experimental: Chloroplasts were prepared from spinach (Spinacia oleracea L.) according to Masarovicova and Kralova. The inhibition of photosynthetic electron transport (PET) in spinach chloroplasts was determined spectrophotometrically (Genesys 6, Thermo Scientific), using an artificial electron acceptor 2,6-dichlorophenol-indophenol (DCIPP) according to Kralova et al., and the rate of photosynthetic electron transport was monitored as a photoreduction of DCPIP. The measurements were carried out in phosphate buffer (0.02 mol/L, pH 7.2) containing sucrose (0.4 mol/L), MgCl2 (0.005 mol/L), and NaCl (0.015 mol/L). The chlorophyll content was 30 mg/L in these experiments, and the samples were irradiated (~100 W/m^2 with 10 cm distance) with a halogen lamp (250 W) using a 4 cm water filter to prevent warming of the samples (suspension temperature 22 °C). The studied compounds were dissolved in DMSO due to their limited water solubility.

MRSA SA 630 [12] = assay: Synergy effect with clinically used drugs (fractional inhibitory concentration); type: cell-based, Staphylococcus aureus; details: for Separate MIC: MRSA SA 630, each drug alone in the checkerboard plate; for Combined effect with vancomycin: additivity 0.5 < ΣFIC < 1
THP-1 cells = assay: In vitro antiproliferative assay (WST-1); type: cell-based, human; details: WST-1, 24 h, highest concentration 30 μM, read-out: Tox IC50 (antiproliferative)
Experimental: The activity of this enzyme directly correlates with the number of metabolically active cells in the culture. […] Human monocytic leukemia THP-1 cells were used for in vitro antiproliferative assay. […] Cells were passaged at approximately one-week intervals. […] The maximum concentration of DMSO in the assays never exceeded 0.1%. Subsequently, the cells were incubated at 37 °C with 5% CO2 for 24 h. […] The median inhibition concentration values, IC50, were deduced through the production of a dose-response curve. All data were evaluated using GraphPad Prism 5.00 software (GraphPad Software, San Diego, CA, USA).

[13] = system: S. aureus ATCC 29213 biofilm formation; assay: Biofilm inhibition assay (crystal violet); type: cell-based, Staphylococcus aureus
MRSA 63718 [14] = assay: Synergy effect with clinically used drugs (fractional inhibitory concentration); type: cell-based, Staphylococcus aureus; details: MRSA 63718, each drug alone in the checkerboard plate
[15] = Staphylococcus aureus, ATCC29213, 24 h
[16] = MRSA SA 3202, synergy ΣFIC ≤ 0.5

Structure (SMILES)	MIC ([1]; Fusarium avenaceum)	MIC [3]	log k [4]	MIC (MRSA 63718 [5])	MIC (MRSA 63718 [5]; Staphylococcus aureus, MRSA)	bactericidal effect in time-kill curve assay (S. aureus ATCC 29213)	MIC ([7]; S. aureus ATCC 29213, 24 h)	MIC [7, 15]	MIC (MRSA SA 3202 [8])	MIC (MRSA SA 3202 [8]; Staphylococcus aureus, MRSA)	minimal bactericidal concentrations (Staphylococcus aureus)	Separate MIC (MRSA SA 3202 [9])	Combined effect with vancomycin (MRSA SA 3202 [9]; MRSA SA 3202)	MIC (MRSA SA 630 [10])	MIC (MRSA SA 630 [10]; Staphylococcus aureus, MRSA)	IC50 [11]	Separate MIC (MRSA SA 630 [12])	Combined effect with vancomycin (MRSA SA 630 [12]; MRSA SA 630)	IC50 (THP-1 cells; Homo sapiens, THP-1, 24 h)	IC50 (THP-1 cells)	other results
O=C(Nc1cccc(C(F)(F)F)c1)c1ccc2cccc(O)c2n1 [8-hydroxy-N-(3-trifluoromethylphenyl)quinoline-2-carbox-amide]																					decrease of the viability of M. tuberculosis H37Ra to (M. tuberculosis H37Ra): 18.8%
CCCCNC(=O)n1c(NC(=O)OC)nc2ccccc21 [BNM, benomyl, reference compound]	1.94 µM and 0.5 µg/mL	17.2 µM and 5 µg/mL																			inhibition at 5 µg/mL ([2]; 5 μg/mL): 100%; inhibition at 10 µg/mL ([2]; 10 μg/mL): 100%
O=C(/C=C/c1ccccc1)Nc1cccc(C(F)(F)F)c1 [Compound 6, (2E)-3-Phenyl-N-[3-(trifluoromethyl)phenyl]prop-2-enamide]	54.9 µM and 16 µg/mL	54.9 µM and 16 µg/mL	0.4859	27.47 µM (≈ 8 µg/mL)	27.5 µM and 8 µg/mL	very close to the bactericidal level	27.47 µM (≈ 8 µg/mL)	27.5 µM and 8 µg/mL	27.47 µM (≈ 8 µg/mL)	27.5 µM and 8 µg/mL	≤ 4 × MIC	16 μg/mL and 8/8 μg/mL and 8 μg/mL	additivity	27.47 µM (≈ 8 µg/mL)	27.5 µM and 8 µg/mL	189 µM	8 µg/mL	additivity	22 µM	22.7 ± 1.73 µM	MIC [1]: 54.93 µM (≈ 16 µg/mL); in vivo toxicity against plant cells [6]: nontoxic effect; also recorded: no visible influence on the plant tissue; MIC BS [3]: 49.98 to 66.32 µM; lowest concentration which inhibited ≥80% of biofilm formation ([13]; S. aureus ATCC 29213, 48 h): 8 µg/mL
O=C(/C=C/c1ccccc1)Nc1cc(C(F)(F)F)cc(C(F)(F)F)c1 [Compound 13, (2E)-N-[3,5-bis(Trifluoromethyl)phenyl]-3-phenylprop-2-enamide]	713 µM and 256 µg/mL	356 µM and 128 µg/mL	0.981 and 0.9814	22.27 µM (≈ 8 µg/mL)	22.3 µM and 8 µg/mL	bactericidal	22.27 µM (≈ 8 µg/mL)	22.3 µM and 8 µg/mL	22.27 µM (≈ 8 µg/mL)	22.3 µM and 8 µg/mL	≤ 4 × MIC	32 µg/mL	additivity	22.27 µM (≈ 8 µg/mL)	22.3 µM and 8 µg/mL	111 µM	8 µg/mL and 4 µg/mL	additivity	22 µM	22.6 ± 1.88 µM	Combined effect with ciprofloxacin (MRSA SA 3202 [9]; [16]): synergistic; Combined effect with tetracycline (MRSA SA 3202 [9]; [16]): synergistic; Combined effect with ciprofloxacin (MRSA SA 630 [12]; MRSA SA 630, synergy ΣFIC ≤ 0.5): synergistic
CN(C)[C@@H]1C(O)=C(C(N)=O)C(=O)[C@@]2(O)C(O)=C3C(=O)c4c(O)cccc4[C@@](C)(O)[C@H]3C[C@@H]12 [TET, tetracycline, reference compound]												64 µg/mL									Separate MIC (MRSA 63718 [14]): 128 µg/mL
CN[C@H](CC(C)C)C(=O)N[C@H]1C(=O)N[C@@H](CC(N)=O)C(=O)N[C@H]2C(=O)N[C@H]3C(=O)N[C@H](C(=O)N[C@H](C(=O)O)c4cc(O)cc(O)c4-c4cc3ccc4O)[C@H](O)c3ccc(c(Cl)c3)Oc3cc2cc(c3O[C@@H]2O[C@H](CO)[C@@H](O)[C@H](O)[C@H]2O[C@H]2C[C@](C)(N)[C@H](O)[C@H](C)O2)Oc2ccc(cc2Cl)[C@H]1O [VAN, vancomycin, reference compound]												1 µg/mL					1 µg/mL				Separate MIC (MRSA 63718 [14]): 2 µg/mL; effect on biofilm formation ([13]; sub-MIC concentrations): induction of biofilm formation
